Assay results published in patent US8257755B2, “Metabolic syndrome-improving agent and medicine, supplement, functional food and food additive containing the same” (ARKRAY, Inc., priority 2005, dated 2012).

Assays:
Type in all cases: cell-based
PPARα = target: T1, PPARα (Homo sapiens, UniProt Q07869); assay: PPARα ligand activity, GAL4-hPPARα luciferase reporter assay in CV-1 cells; details: relative to non-treatment control (DMSO) = 100, average ± standard error
T1 construct: expressed in transfected cells; host or cells: CV-1 cells (African green monkey kidney)
T1 sequence (Q07869 1-468): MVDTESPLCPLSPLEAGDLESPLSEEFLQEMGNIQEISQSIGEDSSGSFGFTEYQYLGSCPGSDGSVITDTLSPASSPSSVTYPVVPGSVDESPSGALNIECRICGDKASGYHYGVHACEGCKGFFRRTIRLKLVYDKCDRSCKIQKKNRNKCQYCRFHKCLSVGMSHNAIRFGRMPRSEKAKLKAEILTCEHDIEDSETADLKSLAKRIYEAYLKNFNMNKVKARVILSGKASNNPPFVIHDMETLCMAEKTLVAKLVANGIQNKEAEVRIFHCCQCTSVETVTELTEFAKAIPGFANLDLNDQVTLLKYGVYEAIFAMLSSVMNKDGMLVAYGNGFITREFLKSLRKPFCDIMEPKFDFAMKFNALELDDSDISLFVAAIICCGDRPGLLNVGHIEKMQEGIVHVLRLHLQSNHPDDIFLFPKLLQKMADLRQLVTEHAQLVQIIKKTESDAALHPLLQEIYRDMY
Description: (§1) CV-1 cells (cultured cells derived from kidneys of male African green monkeys) were implanted on 24-well culture plates so as to be […]/well and cultured at 37° C. in 5% CO2 for 24 hours. As a medium, DMEM (Dulbecco's Modified Eagle Medium; manufactured by GIBCO) containing 10% FBS (fetal bovine serum) and a 10 mg/mL penicillin streptomycin solution was used. Using the Lipofectamine system (trade name; manufactured by Invitrogen Corporation), pM-hPPARγ and p4×UASg-tk-luc were transfected. The above-noted pM-hPPARγ was a chimeric protein-expression plasmid binding GAL4 gene (amino acid sequence 1-147) and human PPARγ ligand-binding site gene (amino acid sequence 204-505), whereas the above-noted p4×UASg-tk-luc was a reporter plasmid containing four copies of a responsive element (UAS) of GAL 4 upstream of a luciferase gene. About 24 hours after the transfection, samples of bergamottin at respective concentrations (0.1, 1.0, 10, 50 and 100 μM) were added to the above-described media, followed by 24 hour incubation. The above-noted samples were prepared by dissolving bergamottin in dimethyl sulfoxide (DMSO). Instead of the above-noted sample, DMSO was used for non-treated control media. After the incubation, measurement was made using a Dual-Luciferase Reporter Gene Assay system (trade name; manufactured by Promega Corporation).
(§2) Similarly to the measurement group, as a control group, pM (a plasmid from which PPARγ ligand-binding site gene was removed) was used for measurement instead of pM-hPPARγ. For each sample, the ratio between average luminescence intensities of the measurement group and the control group (n=4) (measurement group/control group) was calculated, and an activity relative to the non-treatment control was determined as the PPARγ ligand activity of the sample.
The PPARα ligand activity of bergamottin was measured similarly to Example 1 except that pM-hPPARα was used instead of pM-hPPARγ and the bergamottin concentrations were set to 0.1, 1.0, 5.0, 10, 20, 50 and 80 μM.

[1] = system: HepG2 cells (human hepatic cells); assay: Counting of the number of living cells (CellTiter 96 Aqueous One) in HepG2; details: 30 hours, measurement group/control group, DMSO control = 100
Description: HepG2 was cultured to 80% to 90% confluence in a 100 mm/Collagen-Coated Dish (trade name, manufactured by Iwaki Glass Works, Co.). The medium was removed from the above-noted dish with a pipette and then HepG2 was washed with 2 mL of 1×PBS. Then, 2 mL of trypsin-EDTA was added, the above-noted dish was rotated slowly so that the trypsin-EDTA spread over the entire cells, this trypsin-EDTA was removed with a pipette, and the dish was allowed to stand still for 15 minutes in a CO2 incubator (37° C., 5%). To this dish, 12 mL of a growth medium was added, followed by mixing by pipetting, and 1 mL of this mixture solution was dispensed in each well of Collagen-Coated Microplates 12Well/Flat Bottom (trade name, manufactured by Iwaki Glass Works, Co.). After the cells were checked using a microscope, the wells were cultured in a CO2 incubator (37° C., 5%) for one to two days. After checking that 80% to 90% confluence was achieved using the microscope, a medium replacement was carried out by removing the medium and adding 800 μL of a medium containing bergamottin. […] Using this collected medium, the number of living cells were counted, and the Western blotting and the ELISA measurement were carried out similarly to the above. From the result of the ELISA, the ratio of the VLDL secretion amount between the measurement group and the non-treated control group (measurement group/control group) was calculated for each sample.
The measurement was made using CellTiter 96 Aqueous One Solution Cell Proliferation Assay (trade name, manufactured by Promega Corporation). […] 100 μL of this mixture solution was dispensed to each of three wells of ELISA PLATE 96well (trade name, manufactured by Iwaki Glass Works, Co.), and the absorbance at 490 nm was measured. The measurement was made using wallac ARVOsx (trade name, PerkinElmer Life Sciences, PerkinElmer, Inc.), and the mode of measurement was Absorbance (490 nm, 1.0 S). The ratio of the number of living cells between the measurement group and the non-treated control group (measurement group/control group) was calculated for each sample.

[2] = target: T2, human PPARγ ligand-binding site (Homo sapiens, UniProt P37231); assay: PPARγ ligand activity, GAL4-hPPARγ luciferase reporter assay in CV-1 cells; details: for PPARγ ligand activity: relative to non-treatment control (DMSO) = 100, average ± standard error, n=4
T2 construct: expressed in transfected cells; host or cells: CV-1 cells (African green monkey kidney)
T2 sequence (P37231 204-505): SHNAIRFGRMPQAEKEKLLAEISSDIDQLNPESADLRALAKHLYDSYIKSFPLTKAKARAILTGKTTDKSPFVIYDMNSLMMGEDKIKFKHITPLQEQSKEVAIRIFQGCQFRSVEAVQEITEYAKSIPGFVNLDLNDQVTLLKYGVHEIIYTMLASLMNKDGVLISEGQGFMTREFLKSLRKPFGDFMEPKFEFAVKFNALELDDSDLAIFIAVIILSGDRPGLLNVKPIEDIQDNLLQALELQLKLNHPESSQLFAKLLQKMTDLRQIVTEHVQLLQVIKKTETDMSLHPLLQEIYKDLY
Description: as §1, §2

PPARα ligand activity (PPARα; 0.1 μM): 95 ± 12.9
PPARα ligand activity (PPARα; 1.0 μM): 92 ± 8.0
PPARα ligand activity (PPARα; 5.0 μM): 118 ± 6.1
PPARα ligand activity (PPARα; 10 μM): 194 ± 15.0
PPARα ligand activity (PPARα; 20 μM): 350 ± 25.5
PPARα ligand activity (PPARα; 50 μM): 622 ± 79.6
PPARα ligand activity (PPARα; 80 μM): 558 ± 39.4
Number of living cells (%) ([1]; 10 μM): 99.6%
Number of living cells (%) ([1]; 20 μM): 97.2%
Number of living cells (%) ([1]; 50 μM): 99.8%
PPARγ ligand activity ([2]; 0.1 μM): 90 ± 5.7
PPARγ ligand activity ([2]; 1.0 μM): 132 ± 12.0
PPARγ ligand activity ([2]; 10 μM): 388 ± 41.4
PPARγ ligand activity ([2]; 50 μM): 961 ± 72.1
PPARγ ligand activity ([2]; 100 μM): 1032 ± 248.3
PPARγ activity level compared with catechin ([2]; no catechin data shown): higher than that of catechin
Structure (SMILES): CC(C)=CCC/C(C)=C/COc1c2ccoc2cc2oc(=O)ccc12 [Bergamottin, bergamottin]
